Data set [1] has as its system psoriasis induced mice. As to the kind of experiment: Therapeutic (recovery) effect in psoriasis induced mice after termination of imiquimod application. The format is in vivo, mouse. The note with it: for PASI reflecting skin flair: distilled water 0.7±0.6; for number of mice showing hemorrhage spots / number of mice showing skin wrinkles: oral 100 mg/kg. The protocol:
(§1) Imiquimod was applied to the psoriasis induced mice which had developed psoriasis for a week in Example <2-1>. The application was stopped 8 days after the application began. The groups CON and IMQ were treated with distilled water, the group C was treated with cedrol, the group CA was treated with cedryl acetate, the group CE was treated with alpha-cedrene alone at the concentration of 100 mg/kg in 200 ? , every day via oral-administration. Day 8 was the day the imiquimod application was stopped, since then the compounds were administered for 1 week once a day, during which photo-recording was performed (FIGS. 13A˜13D).
The psoriasis area severity index (Psoriasis Area Severity Index, PASI) was given from the point 1 to point 4, based on which the recovery effect on the ear thickness was evaluated.
Then, the psoriasis area severity index (Psoriasis Area Severity Index, PASI) was calculated, based on which the recovery effect on keratosis was evaluated.
The psoriasis area severity index obtained in Examples <3-2> and <3-4> was accumulated to compare the psoriasis area severity index for ear thickness, keratosis and skin flair of the mouse groups respectively treated with cedrol, cedryl acetate, and alpha-cedrene via oral-administration.
The psoriasis induced mice orally administered with cedrol, cedryl acetate, and alpha-cedrene of Example <3-1> were observed by the naked eye, and the number of mice showing the recovery of hemorrhage spots was counted.
The psoriasis induced mice orally administered with cedrol, cedryl acetate, and alpha-cedrene of Example <3-1> were observed by the naked eye, and the number of mice showing the recovery of skin wrinkles was counted.

For data set [2], the system named is psoriasis induced mice. As to the kind of experiment: Hair regrowth in psoriasis induced mice after termination of imiquimod application. It counts as in vivo, mouse. The conditions noted are these: oral 100 mg/kg. The protocol: as §1
The psoriasis induced mice orally administered with cedrol, cedryl acetate, and alpha-cedrene of Example <3-1> were observed by the naked eye, and the number of mice showing hair regrowth was counted.

Data set [3] relates to psoriasis induced mice. As to the kind of experiment: Delay of psoriasis development in imiquimod-induced mice (ear thickness, keratosis, skin flair, pain, hemorrhage spots, wrinkles). The format is in vivo, mouse. The conditions noted are these: for cumulative psoriasis area severity index (ear thickness, keratosis, skin flair), in words: oral 100 mg/kg once a day, FIG. 7; for number of mice showing hemorrhage spots / number of mice showing skin wrinkles / number of mice showing skin pain: oral 100 mg/kg. The protocol: (§2) To investigate the delayed effect of cedrol, cedryl acetate, and alpha-cedrene on the development of psoriasis, total 5 groups of mice were prepared (8 mice/group). First, the hair of the entire back of the 8-week-old male Balb/c mouse whose immune system was weakened was removed by using a hair clipper (Kimlaube Hair pen 325,327, Rikei, Korea). In the middle of the shaved back of the mouse, 2 mg of imiquimod (3M Health Care Limited, England) was applied in the area of 2 cm×1.5 cm and also 1,125 mg of imiquimod was applied on the right ear of the mouse every day once a day to induce psoriasis.
The mice prepared above were divided into the distilled water treated group (IMQ), the cedrol treated group (C), the cedryl acetate treated group (CA), and the alpha-cedrene treated group (CE). At this time, the mice were orally treated with distilled water at the concentration of 200 ? /mouse and cedrol or its derivatives at the concentration of 200 ? /mouse (100 mg/kg). The day when distilled water or the compound administration started was recorded as day 0 and the administration was performed once a day for a week, during which photo-recording was performed every day (FIGS. 2A˜2D). In the meantime, instead of applying imiquimod, 40 mg of vaseline was applied on the back of the control group (CONT) and 22.5 mg of vaseline was applied on the right ear of the control group. And the control group was orally administered with distilled water (200 ? /mouse).
Then, the psoriasis area severity index (PASI) was calculated with the range of 1˜4 to confirm the reduction effect of the compounds on the ear thickness.
Then, the psoriasis area severity index (PASI) was calculated to confirm the reduction effect of the compounds on keratosis. Keratosis is a symptom of psoriasis. The application of IMQ can induce keratosis.
Then, the psoriasis area severity index (PASI) was calculated to confirm the reduction effect of the compounds on skin flair. Skin flair is a symptom of psoriasis. The application of IMQ can induce skin flair.
The psoriasis area severity index obtained in Examples <2-3> and <2-5> was accumulated to compare the psoriasis area severity index for ear thickness, keratosis and skin flair of the mouse groups respectively treated with cedrol, cedryl acetate, and alpha-cedrene via oral-administration.
When the back of the psoriasis induced mice orally administered with cedrol, cedryl acetate, and alpha-cedrene of Example <2-1> was pinched, those mice who sound painfully with strong rejection were counted. Skin pain is a symptom of psoriasis, and when IMQ is applied, skin pain becomes stronger as time goes by.
The psoriasis induced mice orally administered with cedrol, cedryl acetate, and alpha-cedrene of Example <2-1> were observed by the naked eye, and the number of mice showing hemorrhage spots was counted. Hemorrhage spot is a symptom of psoriasis, and when IMQ is applied, the number of skin hemorrhage spots increases as time goes by.
The psoriasis induced mice orally administered with cedrol, cedryl acetate, and alpha-cedrene of Example <2-1> were observed by the naked eye, and the number of mice showing skin wrinkles was counted. Skin wrinkle is a symptom of psoriasis, and when IMQ is applied, skin keratinization increases and accordingly skin wrinkles are formed as time goes by.

The test system of the next data set is human IL-17A expression. As to the kind of experiment: IL-17A inhibition assay in IL-17 luciferase-(LUCPorter) stable reporter cell line. The conditions noted are these: 10, 100, 1,000 μg/ml.
Data set [4] is described as follows: Weight changes in psoriasis induced mice during oral administration. The format is in vivo, mouse. The note with it: oral 100 mg/kg once a day during IMQ application, for 7 days; IMQ alone reduced by 0.48 g. The protocol:
as §2
The mice prepared above were divided into the distilled water treated group (IMQ), the cedrol treated group (C), the cedryl acetate treated group (CA), and the alpha-cedrene treated group (CE). […] The day when distilled water or the compound administration started was recorded as day 0 and the administration was performed once a day for a week, during which photo-recording was performed every day (FIGS. 2A˜2D). […]
To compare the weight changes in the psoriasis induced mice according to the oral administration of cedrol, cedryl acetate, and alpha-cedrene of Example <2-1>, the weight of each mouse was measured at the same time every day for a week.

Where [5] appears, read: oral 100 mg/kg once a day, day 16.
The mark [6] stands for this setting: day 16, distilled water 1 mouse.
Setting [7] is: day 16, distilled water one mouse.
Setting [8] is: day 7, 8 mice/group, IMQ alone 3 mice.
[9] abbreviates: day 7, 8 mice/group, IMQ alone 5 mice.
Setting [10] is: oral 100 mg/kg once a day, day 15.

The record followed here is US10493043B2, “Pharmaceutical composition for preventing or treating autoimmune diseases comprising cedrol or derivatives thereof, or pharmaceutically acceptable salts thereof” (University of Seoul Industry Cooperation Foundation, priority 2017, dated 2019).

Regarding `CC1=CC[C@@]23C[C@@H]1C(C)(C)[C@@H]2CC[C@H]3C` [alpha-cedrene, Alpha-cedrene], in the data set on psoriasis induced mice [1] (setting [5]), the “PASI reflecting skin flair” value is “disappeared”. The “number of mice showing hemorrhage spots” value in the data set with psoriasis induced mice [1] (setting [6]) is on record as “no mouse”; with psoriasis induced mice [3] (day 5, 8 mice/group), “two mice”; with psoriasis induced mice [3] (setting [9]), “one mouse”. The “number of mice showing skin wrinkles” value is “no mouse” in the data set with psoriasis induced mice [1] (setting [7]); “one mouse” in the data set on psoriasis induced mice [3] (day 6, 8 mice/group); “one mouse” with psoriasis induced mice [3] (setting [8]). Moreover, the “number of mice showing hair regrowth” value is listed as “one mouse” with psoriasis induced mice [2] (day 13) and “all the mice” with psoriasis induced mice [2] (day 16, distilled water 5 mice). In the data set on psoriasis induced mice [3], the “cumulative psoriasis area severity index (ear thickness, keratosis, skin flair), in words” value is listed as “strongest reduction effect”. Besides, the “number of mice showing skin pain” value in the data set on psoriasis induced mice [3] (during the 7 day observation period) is reported as “no mice”. Besides, the “suppression of the expression of IL-17A (in words)” value (from here on “suppression”) in the data set on human IL-17A expression is reported as “dose-dependently”.
With `C[C@@H]1CC[C@H]2C(C)(C)[C@H]3C[C@@]12CC[C@@]3(C)O` [cedrol, Cedrol], the “weight change (increase)” value in data set [4] is 0.025 g. For the same compound, in the data set with psoriasis induced mice [1] (oral 100 mg/kg once a day, FIG. 17), the “cumulative psoriasis area severity index (ear thickness, keratosis, skin flair), recovery in words” value is “strongest recovery effect”. The PASI reflecting keratosis result in the data set with psoriasis induced mice [1] (setting [10]) is on record as “recovered to normal”. Besides, the “PASI reflecting skin flair” value with psoriasis induced mice [1] (setting [5]) is “disappeared”. The “number of mice showing skin wrinkles” value in the data set on psoriasis induced mice [1] (after day 15) is listed as “no mouse”; with psoriasis induced mice [3] (day 5, 8 mice/group) it was “one mouse”. Besides, the “number of mice showing hemorrhage spots” value is reported as “no mouse” with psoriasis induced mice [1] (day 12) and “one mouse” with psoriasis induced mice [3] (day 4, 8 mice/group). Further, the “number of mice showing hair regrowth” value in the data set on psoriasis induced mice [2] (day 16, distilled water 5 mice) was “all the mice”. Moreover, the “number of mice showing skin pain” value with psoriasis induced mice [3] (day 4, 8 mice/group) was “one mouse”; with psoriasis induced mice [3] (day 5, 8 mice/group), “no mice”. Moreover, in the data set with human IL-17A expression, the “suppression” value is reported as “dose-dependently”.
For the compound `CC(=O)O[C@]1(C)CC[C@@]23C[C@@H]1C(C)(C)[C@@H]2CC[C@H]3C` [cedryl acetate, Cedryl acetate], the “PASI reflecting the ear thickness” value in the data set on psoriasis induced mice [1] (setting [10]) was “recovered to normal”. Also, the “number of mice showing hemorrhage spots” value in the data set with psoriasis induced mice [1] (setting [6]) is reported as “no mouse”; with psoriasis induced mice [3] (day 5, 8 mice/group) it was “one mouse”; with psoriasis induced mice [3] (setting [9]) it was “one mouse”. The “number of mice showing skin wrinkles” value with psoriasis induced mice [1] (setting [7]) is “no mouse”; in the data set with psoriasis induced mice [3] (day 5, 8 mice/group) it was “one mouse”; with psoriasis induced mice [3] (setting [8]) it was “one mouse”. Further, the “number of mice showing hair regrowth” value in the data set on psoriasis induced mice [2] (day 14, distilled water one mouse) is listed as “one mouse”. Further, the “cumulative psoriasis area severity index (ear thickness, keratosis, skin flair), in words” value with psoriasis induced mice [3] is on record as “strongest reduction effect”. For the same compound, the “number of mice showing skin pain” value in the data set with psoriasis induced mice [3] (day 6, 8 mice/group) is given as “one mouse”; in the data set on psoriasis induced mice [3] (setting [9]) it was “no mice”. Also, the “suppression” value with human IL-17A expression is listed as “dose-dependently”.
